Data set [1] can be described thus: clinical. The note with it: for Tmax / AUC(0-t) / Cmax: human, in vivo, mean; for Tmax: Tmax (plasma); for AUC(0-t): AUC (0-12) (plasma); for Cmax: Cmax (plasma). As for the experimental part:
Descriptive statistics for each parameter, including mean, median, standard deviation, coefficient of variation, N, minimum, and maximum were calculated for all of the subjects by Day. In addition, descriptive statistics were presented by the subgroups: extensive metabolizer (EM) and poor metabolizer (PM).
The ANOVA model included the factors group (EM or PM), subject within group, day, and the interaction term day by group. The group effect was tested using the subject within group mean square, and all other main effects were tested using the residual error (error mean square). In addition, tests of the hypotheses Day 1=Day 4, Day 1=Day 8, and Day 4=Day 8 were performed.

The format of data set [2] is in vivo. The text has this: An adverse event was any unfavorable and unintended sign (including an abnormal laboratory finding, for example), symptom, or disease temporally associated with the use of a medicinal product, whether or not considered related to the medicinal product. Changes associated with normal growth and development not varying in frequency or magnitude from that ordinarily anticipated clinically are not adverse events (for example, onset of menstruation occurring at a physiologically appropriate time). Clinical adverse events were described by diagnosis and not by symptoms when possible (for example, cold or seasonal allergies, instead of “runny nose”).
The severity of adverse events was graded on a 3-point scale and reported in detail as indicated on the Case Report Form: mild—easily tolerated, causing minimal discomfort, and not interfering with normal everyday activities; moderate—sufficiently discomforting to interfere with normal everyday activities; and severe—incapacitating and/or preventing normal everyday activities.
Subjects were instructed to promptly report any adverse event. The serious adverse event was assessed for the following details: seriousness of event, start date, stop date, intensity, frequency, relationship to test drug, action taken regarding test drug, treatment required, and outcome to date. These details were recorded on the Case Report Form. Such preliminary reports were followed by detailed descriptions that included copies of hospital case reports, autopsy reports, and other documents when requested and applicable.
Blood and urine were collected at the screening visit and Day 29 for clinical chemistry, hematology, urinalysis, and pregnancy testing. In the event of an abnormal laboratory test value, the test was repeated within one week, and the subject was followed up until the value returned to the normal range and/or until an adequate explanation of the abnormality was found.
Values were obtained for systolic and diastolic blood pressure, heart rate, and respiration rate on the screening visit and all other study visits. All values outside the pre-defined ranges were flagged in the subject data listings. Electrocardiography (twelve lead) was used to obtain ventricular rate (VR), QT, Q-Tc intervals, […] (PR), and QRS duration. A blood sample (10 mL whole blood) was taken from each subject at the Screening Visit for CYP2D6 genotyping to determine which subjects were poor metabolizers of DM and which were extensive metabolizers. Blood samples were taken on Day 29 for the determination of concentrations of DM, DX, and Q in plasma. The relationship between the concentration of drug in plasma and changes in CNS-LS scores was determined, and the effect of the CYP2D6 genotype on this relationship was evaluated.

The nature of data set [3]: Clinical Study #5: concentrations in plasma of DM, DX and Q and correlation with pain intensity. The data set is classed as in vivo, human. The note with it: final visit; for Concentration in plasma, Mean / Concentration in plasma, Median: extensive metabolizers. The procedure:
Subjects visited the clinic every two weeks during the four-week duration of the study and were contacted by telephone during weeks without clinic visits. At each subsequent study visit or weekly phone call, the subjects were given the Pain Intensity Rating Scale and the Pain Relief Rating Scale and were queried regarding any adverse events that might have occurred since their previous visit. Subjects were administered the Peripheral Neuropathy Quality of Life (QOL) Instrument on Days 1 and 29 (or the final visit). Blood samples were taken at the visits on Day 15 and Day 29 to determine concentrations in plasma of DM, DX, and Q.

Setting [4] is: Day 1, All Subjects, 30 mg DM HBr/25 mg Q sulfate capsule every 12 hours.
Setting [5] is: Day 1, EM, 30 mg DM HBr/25 mg Q sulfate capsule every 12 hours.
Setting [6] is: Day 1, PM, 30 mg DM HBr/25 mg Q sulfate capsule every 12 hours.
Where [7] appears, read: Day 4, All Subjects, 30 mg DM HBr/25 mg Q sulfate capsule every 12 hours.
Where [8] appears, read: Day 4, EM, 30 mg DM HBr/25 mg Q sulfate capsule every 12 hours.
The mark [9] stands for this setting: Day 4, PM, 30 mg DM HBr/25 mg Q sulfate capsule every 12 hours.
[10] abbreviates: Day 8, All Subjects, 30 mg DM HBr/25 mg Q sulfate capsule every 12 hours.
Setting [11] is: Day 8, EM, 30 mg DM HBr/25 mg Q sulfate capsule every 12 hours.
Setting [12] is: Day 8, PM, 30 mg DM HBr/25 mg Q sulfate capsule every 12 hours.

As usually defined, the Tmax is the time from dosing to the highest level. Consider `C=C[C@H]1C[N@@]2CC[C@H]1C[C@@H]2[C@@H](O)c1ccnc2ccc(OC)cc12` [Quinidine, quinidine], for which, in data set [1], the Tmax worked out at 1.71 h. In data set [2] (28 days, twice daily), this compound registered a Subjects with dizziness of 2.7%, a Subjects with nausea of 8.1% and a Subjects with somnolence of 0%. Moreover, the “Subjects who withdrew because of adverse events” value in data set [2] (human, in vivo, 29 days) is recorded as 8.1%. Further, in data set [2] (judged not related to the study drug), the “Subjects reporting serious adverse events” value is on record as “only other serious adverse event”.

As a reminder, the AUC(0-t) is exposure summed from dosing to a finite time, without extrapolation to infinity. A higher AUC(0-t) goes with high exposure. By Cmax is commonly meant the peak of the concentration-time curve. In the case of `CN1CC[C@@]23CCCC[C@@H]2[C@@H]1Cc1ccc(O)cc13` [Dextrorphan, dextrorphan], the AUC(0-t) in data set [1] (setting [4]) amounted to 749 ng·h/mL; in data set [1] (setting [5]) it was 934 ng·h/mL; in data set [1] (setting [6]), 91 ng·h/mL; in data set [1] (setting [7]), 742 ng·h/mL; in data set [1] (setting [8]), 849 ng·h/mL; in data set [1] (setting [9]), 365 ng·h/mL. Besides, the AUC(0-t) in data set [1] (setting [10]) is 896 ng·h/mL; in data set [1] (setting [11]), 1000 ng·h/mL; in data set [1] (setting [12]), 530 ng·h/mL. The maximum concentration (Cmax) in data set [1] (setting [4]) is 99.5 ng/mL; in data set [1] (setting [5]), 125 ng/mL; in data set [1] (setting [6]), 10.8 ng/mL; in data set [1] (setting [7]), 69.9 ng/mL; in data set [1] (setting [8]), 79.3 ng/mL; in data set [1] (setting [9]), 37 ng/mL. The Cmax in data set [1] (setting [10]) amounted to 108 ng/mL; in data set [1] (setting [11]) it was 124 ng/mL; in data set [1] (setting [12]), 51.5 ng/mL. Besides, the Tmax in data set [1] (setting [4]) was found to be 3.78 h; in data set [1] (setting [5]), 4 h; in data set [1] (setting [6]), 3 h; in data set [1] (setting [7]), 2.17 h; in data set [1] (setting [8]), 2.21 h; in data set [1] (setting [9]), 2 h. Besides, the Tmax worked out at 32.7 h in data set [1] (setting [10]), 41.2 h in data set [1] (setting [11]) and 2.99 h in data set [1] (setting [12]). In addition, the “Fold increase in AUC (0-12) from Day 1 to Day 8” value in data set [1] (poor metabolizers) is 4.8 fold. Besides, the “Concentration in plasma, Mean” value in data set [3] (DM/Q MTD 30 mg) came to 70.7 ng/mL; in data set [3] (DM/Q MTD 60 mg), 65.4 ng/mL; in data set [3] (DM/Q MTD 90 mg) it was 88.4 ng/mL; in data set [3] (DM/Q MTD 120 mg) it was 146.6 ng/mL; in data set [3] (Total, all MTDs) it was 123.9 ng/mL. Also, the “Concentration in plasma, Median” value amounted to 94.6 ng/mL in data set [3] (DM/Q MTD 30 mg); 58.2 ng/mL in data set [3] (DM/Q MTD 60 mg); 88.4 ng/mL in data set [3] (DM/Q MTD 90 mg); 122.6 ng/mL in data set [3] (DM/Q MTD 120 mg); 102.6 ng/mL in data set [3] (Total, all MTDs). Moreover, the Concentration in plasma in data set [3] (poor metabolizer (MTD of 60 mg)) is 41.0 ng/mL.

Source of the values: US20130072517A1 (Avanir Pharmaceuticals, Inc., priority 2002, published 2013).
